Test results reported in ChEMBL document CHEMBL3407370, “Potent acetylcholinesterase inhibitors: design, synthesis, biological evaluation, and docking study of acridone linked to 1,2,3-triazole derivatives” (Eur J Med Chem, 2015).

Legend:
Acetylcholinesterase = Acetylcholinesterase (Electrophorus electricus, UniProt O42275); test: Inhibition of electric eel acetylcholinesterase using acetylthiocholine iodide as substrate after 15 mins by Ellman's method
Cholinesterase = Cholinesterase (Equus caballus, UniProt P81908); test: Inhibition of equine serum butylcholinesterase using acetylthiocholine iodide as substrate after 15 mins by Ellman's method
Chain of Cholinesterase (P81908 whole entry): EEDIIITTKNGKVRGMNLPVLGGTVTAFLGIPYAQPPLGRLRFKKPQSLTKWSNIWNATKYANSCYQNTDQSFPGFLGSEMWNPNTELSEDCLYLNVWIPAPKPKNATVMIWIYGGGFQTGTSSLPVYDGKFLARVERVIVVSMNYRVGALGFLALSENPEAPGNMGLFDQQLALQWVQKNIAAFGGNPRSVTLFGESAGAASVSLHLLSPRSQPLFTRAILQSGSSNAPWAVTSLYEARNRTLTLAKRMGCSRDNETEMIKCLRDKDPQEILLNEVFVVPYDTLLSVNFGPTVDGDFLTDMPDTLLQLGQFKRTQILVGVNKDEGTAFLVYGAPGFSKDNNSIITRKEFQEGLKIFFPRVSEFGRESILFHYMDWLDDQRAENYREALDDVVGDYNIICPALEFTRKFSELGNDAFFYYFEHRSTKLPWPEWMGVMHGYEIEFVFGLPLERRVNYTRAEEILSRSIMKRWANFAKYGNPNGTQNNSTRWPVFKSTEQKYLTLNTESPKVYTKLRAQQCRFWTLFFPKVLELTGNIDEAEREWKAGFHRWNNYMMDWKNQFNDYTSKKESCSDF

[1] = Antioxidant activity assessed as DPPH radical scavenging activity at 700 ug/ml incubated in dark condition measured after 30 mins by UV/vis spectrophotometric analysis relative to control; assay type: physicochemical; settings: 0.5 h
[2] = Antioxidant activity assessed as DPPH radical scavenging activity incubated in dark condition measured after 30 mins by UV/vis spectrophotometric analysis; assay type: physicochemical

Chain of Acetylcholinesterase (O42275 whole entry): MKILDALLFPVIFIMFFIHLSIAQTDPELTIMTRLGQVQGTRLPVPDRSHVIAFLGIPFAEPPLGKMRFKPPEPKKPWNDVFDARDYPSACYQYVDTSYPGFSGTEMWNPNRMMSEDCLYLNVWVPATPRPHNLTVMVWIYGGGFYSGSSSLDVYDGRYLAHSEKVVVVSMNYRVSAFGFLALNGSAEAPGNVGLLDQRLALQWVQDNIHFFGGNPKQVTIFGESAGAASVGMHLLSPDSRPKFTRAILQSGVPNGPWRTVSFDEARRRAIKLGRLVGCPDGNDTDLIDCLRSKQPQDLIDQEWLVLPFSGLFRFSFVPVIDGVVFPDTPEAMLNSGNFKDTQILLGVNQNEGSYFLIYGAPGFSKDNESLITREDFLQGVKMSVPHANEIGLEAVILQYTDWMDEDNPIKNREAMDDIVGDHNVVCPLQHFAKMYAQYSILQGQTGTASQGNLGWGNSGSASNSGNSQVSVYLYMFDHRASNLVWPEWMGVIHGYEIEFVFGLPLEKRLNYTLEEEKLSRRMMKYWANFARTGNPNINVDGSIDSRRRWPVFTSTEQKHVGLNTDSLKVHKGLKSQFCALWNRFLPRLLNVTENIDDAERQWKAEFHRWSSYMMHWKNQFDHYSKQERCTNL

Row | Compound | IC50 (Acetylcholinesterase) [µM] | IC50 (Cholinesterase) [µM] | inhibition (INH) [1] [%] | EC50 [2] [µg/mL]
1 | O=c1c2ccccc2n(Cc2cn(Cc3ccccc3)nn2)c2ccccc12 | ≥ 100 | ≥ 100 |  | 
2 | O=c1c2ccccc2n(Cc2cn(Cc3ccc(Cl)cc3)nn2)c2ccccc12 | 59.7 | ≥ 100 | 21.78 | > 333
3 | O=c1c2ccccc2n(Cc2cn(Cc3ccccc3)nn2)c2ccc(Cl)cc12 | 88.1 | ≥ 100 | 26.6 | > 700
4 | O=c1c2ccccc2n(Cc2cn(Cc3ccc(Cl)cc3)nn2)c2ccc(Cl)cc12 | 17.7 | ≥ 100 |  | 
5 | O=c1c2ccccc2n(Cc2cn(Cc3ccc([N+](=O)[O-])cc3)nn2)c2ccc(Cl)cc12 | 38.3 | ≥ 100 |  | 
6 | COc1ccc2c(c1)c(=O)c1ccccc1n2Cc1cn(Cc2ccccc2)nn1 | 24 | ≥ 100 | 8.65 | > 700
7 | COc1ccc2c(c1)c(=O)c1ccccc1n2Cc1cn(Cc2ccc(Cl)cc2)nn1 | 7.31 | ≥ 100 |  | 
8 | O=c1c2ccccc2n(Cc2cn(Cc3ccccc3)nn2)c2ccc(Br)cc12 | 68.1 | ≥ 100 |  | 
9 | O=c1c2ccccc2n(Cc2cn(Cc3ccc(Cl)cc3)nn2)c2ccc(Br)cc12 | 45.6 | ≥ 100 |  | 
10 | O=c1c2ccccc2n(Cc2cn(Cc3ccc([N+](=O)[O-])cc3)nn2)c2ccc(Br)cc12 | 52.8 | ≥ 100 |  | 
11 | Cc1ccc2c(c1)c(=O)c1ccccc1n2Cc1cn(Cc2ccccc2)nn1 | ≥ 100 | ≥ 100 | 7.09 | > 333
12 | Cc1ccc2c(c1)c(=O)c1ccccc1n2Cc1cn(Cc2ccc(Cl)cc2)nn1 | 10.8 | 87.2 |  | 
13 | O=c1c2ccccc2n(Cc2cn(Cc3ccccc3)nn2)c2c(F)cccc12 | ≥ 100 | ≥ 100 | 14.79 | > 700
14 | O=c1c2ccccc2n(Cc2cn(Cc3ccc(Cl)cc3)nn2)c2c(F)cccc12 | 24.5 | ≥ 100 |  | 
